# Measured values taken from publication PMC10205807, “Cross-species comparison in nonclinical pharmacokinetics of lenvatinib by a simple HPLC with ultraviolet detection” (Scientific Reports, 2023).
# Columns and labels:
# [1] = PK study in dogs (intravenous and oral); assay type: in vivo
# Protocol: Male beagle dogs purchased from Marshall Farm USA Inc. (NY, USA) were used for the PK study. Dogs were 16 months old when the PK study was conducted. The PK study was performed in a cross-over design with 8 days interval between the doses. Dogs were fasted a day before the PK study and feeding was resumed 4 h postdose. Dosing solution of lenvatinib used in the dog PK study was the same as that in the rodent PK studies. Lenvatinib was intravenously administered at the dose of 3 mg/kg via cephalic vein. Oral administration of lenvatinib was conducted at 3 mg/kg by using a tube with a disposable syringe, and then the dosing tube was given ca. 30 mL of water to flush the remaining dosing solution in the tube. The number of dogs at each dose was four. Approximately 0.5 mL of blood samples were serially obtained from the cephalic vein using a heparinized syringe at pre-dose, and at 5, 15 and 30 min, and 1, 2, 4, 6, 8, 12 and 24 h post-dose. Plasma sample preparation and sample storage were the same as those in the rodent PK studies. PK parameters of lenvatinib were estimated by model independent analysis using a WinNonlin program (Version 4.1, Pharsight Corporation, Mountain View, CA). The time to reach the maximum plasma concentration (Tmax) and the maximum plasma concentration (Cmax) values were obtained directly from the plasma concentration data. Terminal half-life (T1/2) was calculated by ln2/ke, where ke is the slope of the regression line that fits the portion of the terminal phase (at least three time points) in the log-linear concentration–time curve. AUC0–t and AUMC0–t, the area under the concentration–time curves and the area under the first moment curve, from time = zero to time = t, respectively, were calculated using the lenvatinib concentrations in plasma by the linear/log trapezoidal method. AUC0–inf was calculated by AUC0–t + Ct/ke, and AUMC0–inf was AUMC0–t + Ct × t/ke + Ct/(ke)^2, where Ct is the last measurable concentration at time = t. The plasma concentration at time zero for the intravenous dose was extrapolated, while zero was used for the oral doses. Mean residence time (MRT), total plasma clearance (CLtot) and the volume of distribution at steady state (Vdss) were calculated by AUMC0–inf/AUC0–inf, Dose/AUC0–inf and CLtot × MRT, respectively. Oral bioavailability (F) was estimated by comparing dose-normalized AUC0–inf after oral (AUC0–inf.po) and intravenous (AUC0–inf.iv) administration as follows: F (%) = (AUC0–inf.po/AUC0–inf.iv) × 100.
# [2] = PK study in mice (intravenous and oral); assay type: in vivo
# Protocol: Female BALB/cAnNCrj-nu/nu mice were purchased from Charles River Laboratories (Kanagawa, Japan) and were acclimatized for 9 days prior to use in the PK study. At the dosing day, 7-week-old mice were used. E7080 was dissolved in 5% glucose injection to make a 0.3 mg/mL solution for intravenous administration and dissolved in water to make 0.3, 1, and 3 mg/mL solutions for oral administrations. Lenvatinib was intravenously administered at the dose of 3 mg/kg via the tail vein using a disposable syringe and oral administration was performed by gastric gavage at the doses of 3, 10, and 30 mg/kg at the dosing volume of 10 mL/kg (n = 3/time point/dose). Whole blood samples were drawn from the vena cava using heparinized syringes at 5, 15, and 30 min, and 1, 2, 4, 6, 8, 12, and 24 h postdose. Plasma samples were obtained by centrifugation and aliquots of plasma were transferred to a tube and stored below − 15 °C until assayed.
# PK parameters of lenvatinib were estimated by model independent analysis using a WinNonlin program (Version 4.1, Pharsight Corporation, Mountain View, CA). The time to reach the maximum plasma concentration (Tmax) and the maximum plasma concentration (Cmax) values were obtained directly from the plasma concentration data. Terminal half-life (T1/2) was calculated by ln2/ke, where ke is the slope of the regression line that fits the portion of the terminal phase (at least three time points) in the log-linear concentration–time curve. AUC0–t and AUMC0–t, the area under the concentration–time curves and the area under the first moment curve, from time = zero to time = t, respectively, were calculated using the lenvatinib concentrations in plasma by the linear/log trapezoidal method. AUC0–inf was calculated by AUC0–t + Ct/ke, and AUMC0–inf was AUMC0–t + Ct × t/ke + Ct/(ke)^2, where Ct is the last measurable concentration at time = t. The plasma concentration at time zero for the intravenous dose was extrapolated, while zero was used for the oral doses. Mean residence time (MRT), total plasma clearance (CLtot) and the volume of distribution at steady state (Vdss) were calculated by AUMC0–inf/AUC0–inf, Dose/AUC0–inf and CLtot × MRT, respectively. Oral bioavailability (F) was estimated by comparing dose-normalized AUC0–inf after oral (AUC0–inf.po) and intravenous (AUC0–inf.iv) administration as follows: F (%) = (AUC0–inf.po/AUC0–inf.iv) × 100.
# [3] = male, beagle, dog, plasma, intravenous 3 mg/kg
# [4] = male, beagle, dog, plasma, oral 3 mg/kg
# [5] = female, BALB/cAnNCrj-nu/nu, mouse, plasma, intravenous 3 mg/kg
# [6] = female, BALB/cAnNCrj-nu/nu, mouse, plasma, oral 3 mg/kg
# [7] = female, BALB/cAnNCrj-nu/nu, mouse, plasma, oral 10 mg/kg
# [8] = female, BALB/cAnNCrj-nu/nu, mouse, plasma, oral 30 mg/kg
compound,measurement,setting,value
"COc1cc2nccc(Oc3ccc(NC(=O)NC4CC4)c(Cl)c3)c2cc1C(N)=O [lenvatinib, Lenvatinib]",CLint (hepatic intrinsic clearance),"[1]; estimated from oral PK, Fa and Fg assumed unity, BW 10 kg","61,500 mL/h"
same,AUC(0-inf),[1]; [3],8420 ± 927 ng·h/mL
same,MRT,[1]; [3],4.34 ± 0.36 h
same,half-life,[1]; [3],5.27 ± 0.83 h
same,C0,"[1]; male, beagle, dog, plasma, intravenous 3 mg/kg, extrapolated",2440 ± 303 ng/mL
same,clearance,"[1]; male, beagle, dog, plasma, intravenous 3 mg/kg, read-out: CLtot (converted)",6.13 mL/min/kg
same,Vd,"[1]; male, beagle, dog, plasma, intravenous 3 mg/kg, read-out: Vdss",1.61 ± 0.249 L/kg
same,AUC(0-inf),[1]; [4],5480 ± 1370 ng·h/mL
same,Cmax,[1]; [4],1270 ± 302 ng/mL
same,MRT,[1]; [4],4.81 ± 0.25 h
same,half-life,[1]; [4],4.76 ± 0.94 h
same,bioavailability,"[1]; male, beagle, dog, plasma, oral 3 mg/kg vs intravenous 3 mg/kg, read-out: F (oral bioavailability)",70.4 ± 23.1%
same,Tmax,"[1]; male, beagle, dog, plasma, oral 3 mg/kg, median (range)",2 h
same,CLint (hepatic intrinsic clearance),"[2]; estimated from oral PK, Fa and Fg assumed unity, BW 0.02 kg",325 mL/h
same,AUC(0-inf),[2]; [5],8690 ng·h/mL
same,MRT,[2]; [5],2.07 h
same,C0,"[2]; female, BALB/cAnNCrj-nu/nu, mouse, plasma, intravenous 3 mg/kg, extrapolated",8290 ng/mL
same,clearance,"[2]; female, BALB/cAnNCrj-nu/nu, mouse, plasma, intravenous 3 mg/kg, read-out: CLtot (converted)",5.75 mL/min/kg
same,Vd,"[2]; female, BALB/cAnNCrj-nu/nu, mouse, plasma, intravenous 3 mg/kg, read-out: Vdss",0.714 L/kg
same,half-life,"[2]; female, BALB/cAnNCrj-nu/nu, mouse, plasma, iv, 3 mg/kg, intravenous 3 mg/kg",2.05 h
same,AUC(0-inf),[2]; [6],5600 ng·h/mL
same,Cmax,[2]; [6],1970 ng/mL
same,MRT,[2]; [6],3.28 h
same,Tmax,[2]; [6],0.5 h
same,bioavailability,"[2]; female, BALB/cAnNCrj-nu/nu, mouse, plasma, oral 3 mg/kg vs intravenous 3 mg/kg, read-out: F (oral bioavailability)",64.4%
same,AUC(0-inf),[2]; [7],27700 ng·h/mL
same,Cmax,[2]; [7],10500 ng/mL
same,MRT,[2]; [7],3.01 h
same,Tmax,[2]; [7],0.5 h
same,AUC(0-inf),[2]; [8],118000 ng·h/mL
same,Cmax,[2]; [8],31300 ng/mL
same,MRT,[2]; [8],3.29 h
same,Tmax,[2]; [8],1 h
same,half-life,"[2]; female, BALB/cAnNCrj-nu/nu, mouse, plasma, po, 3 mg/kg, oral 3 mg/kg",2.09 h
same,half-life,"[2]; female, BALB/cAnNCrj-nu/nu, mouse, plasma, po, 10 mg/kg, oral 10 mg/kg",1.74 h
same,half-life,"[2]; female, BALB/cAnNCrj-nu/nu, mouse, plasma, po, 30 mg/kg, across 3, 10, and 30 mg/kg",1.74 to 2.09 h
same,half-life,"[2]; female, BALB/cAnNCrj-nu/nu, mouse, plasma, po, 30 mg/kg, oral 30 mg/kg",1.85 h
